We go through four compounds from patent publication US9944602B2, “Piperidinone herbicides” (E. I. DU PONT DE NEMOURS AND COMPANY, priority 2014, dated 2018).

Format in all cases: in vivo
Assay [1] has as its system velvetleaf (Abutilon theophrasti). Put plainly: Test C postemergence velvetleaf. Conditions: Table C, scale 0 to 100. The text has this: (§1) Seeds of plant species selected from blackgrass (Alopecurus myosuroides), ryegrass, Italian (Italian ryegrass, Lolium multiflorum), wheat (winter wheat, Triticum aestivum), galium (catchweed bedstraw, Galium aparine), corn (Zea mays), crabgrass, large (large crabgrass, Digitaria sanguinalis), foxtail, giant (giant foxtail, Setaria faberii), johnsongrass (Sorghum halepense), lambsquarters (Chenopodium album), morningglory (Ipomoea coccinea), yellow (yellow nutsedge, Cyperus esculentus), pigweed (Amaranthus retroflexus), ragweed (common ragweed, Ambrosia elatior), soybean (Glycine max), barnyardgrass (Echinochloa crus-galli), oilseed rape (Brassica napus), waterhemp (common waterhemp, Amaranthus rudis), and velvetleaf (Abutilon theophrasti) were planted into a blend of loam soil and sand and treated preemergence with test chemicals formulated in a non-phytotoxic solvent mixture which included a surfactant. At the same time, plants selected from these crop and weed species and also chickweed (common chickweed, Stellaria media), kochia (Kochia scoparia), and oat, wild (wild oat, Avena fatua) were planted in pots containing Sunshine Redi-Earth® planting medium comprising spaghnum peat moss, vermiculite, starter nutrients and dolomitic limestone and treated with postemergence applications of test chemicals formulated in the same manner. Plants ranged in height from 2 to 18 cm (1- to 4-leaf stage) for postemergence treatments. Treated plants and controls were maintained in a greenhouse for 13 to 15 days, after which time all species were compared to controls and visually evaluated. Plant response ratings, summarized in Table C, are based on a scale of 0 to 100 where 0 is no effect and 100 is complete control. A dash (-) response means no test result.

Assay [2] concerns chickweed (common chickweed, Stellaria media). Put plainly: Test C postemergence chickweed. The note with it: Table C, scale 0 to 100.
Description: as §1

The next assay concerns soybean (Glycine max). Put plainly: Test C postemergence soybean. Conditions: Table C, scale 0 to 100.
Description: as §1

Another assay concerns kochia (Kochia scoparia). Put plainly: Test C postemergence kochia. Conditions: Table C, scale 0 to 100.
Description: as §1

In assay [3] the test system is foxtail, giant (giant foxtail, Setaria faberii). The experiment in a line: Test C postemergence foxtail, giant. The note with it: Table C, scale 0 to 100.
Description: as §1

Assay [4] relates to velvetleaf (Abutilon theophrasti). The experiment in a line: Test C preemergence velvetleaf. Conditions: Table C, scale 0 to 100.
Description: as §1

Assay [5] relates to foxtail, giant (giant foxtail, Setaria faberii). The experiment in a line: Test C preemergence foxtail, giant. The note with it: Table C, scale 0 to 100.
Description: as §1

Assay [6] concerns waterhemp (common waterhemp, Amaranthus rudis). The experiment in a line: Test C preemergence waterhemp. The note with it: Table C, scale 0 to 100.
Description: as §1

The subject of a further assay is corn (Zea mays). Put plainly: Test A preemergence corn. Conditions: 0 to 100 scale; for Corn plant response rating: 125 g ai/ha, 0 no effect, 100 complete control; for Plant response rating, Corn: 500 g ai/ha, 0 is no effect, 100 is complete control. The source says:
(§2) Seeds of plant species selected from barnyardgrass (Echinochloa crus-galli), kochia (Kochia scoparia), ragweed (common ragweed, Ambrosia elatior), ryegrass, Italian (Italian ryegrass, Lolium multiflorum), crabgrass, large (large crabgrass, Digitaria sanguinalis), foxtail, giant (giant foxtail, Setaria faberii), morningglory (Ipomoea spp.), pigweed (Amaranthus retroflexus), velvetleaf (Abutilon theophrasti), wheat (Triticum aestivum), and corn (Zea mays) were planted into a blend of loam soil and sand and treated preemergence with a directed soil spray using test chemicals formulated in a non-phytotoxic solvent mixture which included a surfactant.
(§3) At the same time, plants selected from these crop and weed species and also blackgrass (Alopecurus myosuroides), and galium (catchweed bedstraw, Galium aparine) were planted in pots containing the same blend of loam soil and sand and treated with postemergence applications of test chemicals formulated in the same manner. Plants ranged in height from 2 to 10 cm and were in the one- to two-leaf stage for the postemergence treatment. Treated plants and untreated controls were maintained in a greenhouse for approximately 10 d, after which time all treated plants were compared to untreated controls and visually evaluated for injury. Plant response ratings, summarized in Table A, are based on a 0 to 100 scale where 0 is no effect and 100 is complete control. A dash (-) response means no test result.

The subject of assay [7] is morningglory (Ipomoea spp.). The experiment in a line: Test A preemergence morningglory. The note with it: 0 to 100 scale, 0 no effect, 100 complete control.
Description: as §2, §3

With `O=C1NCCC(c2cccc(C(F)(F)F)c2)C1C(=O)Nc1ccccc1Cl` (racemic) [Compound 17], the Plant response rating in assay [1] (31 g ai/ha), in assay [1] (62 g ai/ha), in [1] (125 g ai/ha), in assay [1] (250 g ai/ha), in [2] (31 g ai/ha) and in [2] (62 g ai/ha) was 0 throughout. Further, the Plant response rating in assay [2] (125 g ai/ha) stood at 0; in assay [2] (250 g ai/ha), 5; in the assay with soybean (Glycine max) (31 g ai/ha), 0; in the assay on soybean (Glycine max) (62 g ai/ha), 10; with soybean (Glycine max) (125 g ai/ha) it was 0; with soybean (Glycine max) (250 g ai/ha), 0. Also, the Plant response rating with kochia (Kochia scoparia) (31 g ai/ha) is reported as 0; in the assay on kochia (Kochia scoparia) (62 g ai/ha), 0; in the assay with kochia (Kochia scoparia) (125 g ai/ha), 0; with kochia (Kochia scoparia) (250 g ai/ha), 0; in assay [3] (31 g ai/ha), 0; in [3] (62 g ai/ha) it was 5. Also, the Plant response rating in assay [3] (125 g ai/ha) and in [3] (250 g ai/ha) was 5 in each case.
In the case of `O=C1NCCC(c2cccc(C(F)(F)F)c2)C1C(=O)Nc1ccc(F)c(F)c1F` (racemic) [Compound 28], the Plant response rating in [4] (31 g ai/ha) is recorded as 10; in assay [4] (62 g ai/ha) it was 0; in assay [4] (125 g ai/ha) it was 20; in assay [4] (250 g ai/ha), 20; in assay [5] (31 g ai/ha) it was 60; in assay [5] (62 g ai/ha), 85. Further, the Plant response rating in assay [5] (125 g ai/ha) was determined as 95; in assay [5] (250 g ai/ha), 95; in assay [6] (31 g ai/ha) it was 0; in [6] (125 g ai/ha), 0; in [6] (250 g ai/ha), 60.
Regarding `O=C1NCCC(c2cccc(C(F)(F)F)c2)C1C(=O)Nc1cccc(F)c1F` (centres unmarked) [Compound 9, N-(2,3-difluorophenyl)-2-oxo-4-[3-(trifluoromethyl)phenyl]-3-piperidinecarboxamide], the “Corn plant response rating” value in the assay with corn (Zea mays) stood at 20. In addition, the “Plant response rating, Corn” value in the assay with corn (Zea mays) is recorded as 70. Moreover, the Plant response rating in assay [1] (31 g ai/ha), in assay [1] (62 g ai/ha), in assay [1] (125 g ai/ha), in assay [1] (250 g ai/ha), in [2] (31 g ai/ha) and in assay [2] (62 g ai/ha) was 0 throughout. The Plant response rating in assay [2] (125 g ai/ha) is recorded as 0; in assay [2] (250 g ai/ha), 5; in the assay on soybean (Glycine max) (31 g ai/ha) it was 0; in the assay with soybean (Glycine max) (62 g ai/ha) it was 0; in the assay with soybean (Glycine max) (125 g ai/ha), 0; with soybean (Glycine max) (250 g ai/ha), 10. In addition, the Plant response rating with kochia (Kochia scoparia) (31 g ai/ha) is recorded as 0; in the assay on kochia (Kochia scoparia) (62 g ai/ha), 0; in the assay on kochia (Kochia scoparia) (125 g ai/ha), 0; with kochia (Kochia scoparia) (250 g ai/ha) it was 0; in assay [4] (31 g ai/ha) it was 0; in assay [4] (62 g ai/ha), 5. Moreover, the Plant response rating in [4] (125 g ai/ha) is 0; in assay [4] (250 g ai/ha), 0; in [3] (31 g ai/ha) it was 0; in assay [3] (62 g ai/ha), 5; in assay [3] (125 g ai/ha), 35; in [3] (250 g ai/ha) it was 85. Further, the Plant response rating is listed as 90 in assay [5] (31 g ai/ha); 95 in [5] (62 g ai/ha); 95 in assay [5] (125 g ai/ha); 98 in assay [5] (250 g ai/ha); 15 in assay [6] (31 g ai/ha); 0 in assay [6] (62 g ai/ha). The figures for the Plant response rating in assay [6] (125 g ai/ha) and in assay [6] (250 g ai/ha) were 20 and 0, respectively. Moreover, the “Morningglory plant response rating” value in assay [7] (125 g ai/ha) and in assay [7] (500 g ai/ha) was 0 throughout.
With `O=C1NCCC(c2cccc(C(F)(F)F)c2)C1C(=O)Nc1ccccc1C(F)(F)F` (centres unmarked) [Compound 10, 2-oxo-N-[2-(trifluoromethyl)phenyl)-4-[3-(trifluoromethyl)phenyl]-3-piperidinecarboxamide], the “Corn plant response rating” value in the assay on corn (Zea mays) is 0. Moreover, the “Plant response rating, Corn” value in the assay with corn (Zea mays) was 0. In addition, the “Morningglory plant response rating” value in [7] (125 g ai/ha) and in assay [7] (500 g ai/ha) was 0 each time.
